Tested on: metastatic NSCLC (patients with lung adenocarcinoma or large-cell carcinoma)
Test: Customized treatment of metastatic NSCLC according to EGFR mutations and BRCA1 mRNA levels: survival
Assay type: in vivo
Conditions: median follow-up of 10 months
Method: Background: A study was carried out wherein treatment of metastatic NSCLC was customized according to the presence of EGFR mutations and BRCA1 mRNA levels.
Methods: 93 patients with lung adenocarcinoma or large-cell carcinoma were screened for EGFR Δ746-750 deletion and L858R mutation and BRCA1 mRNA expression. 15 patients with the L858R mutation in the EGFR gene received erlotinib; 78 patients without the L858R mutation in the EGFR gene received chemotherapy according to BRCA1 levels (low: gemcitabine/cisplatin; intermediate: docetaxel/cisplatin; high: docetaxel alone). In addition, Abraxas and RAP80 mRNA expression were examined in 60/78 patients without the L858R mutation. The features of the patients are collected in Tables I and II.

Compound: CC(=O)O[C@@]12CO[C@@H]1C[C@H](O)[C@@]1(C)C(=O)[C@H](O)C3=C(C)[C@@H](OC(=O)[C@H](O)[C@@H](NC(=O)OC(C)(C)C)c4ccccc4)C[C@@](O)([C@@H](OC(=O)c4ccccc4)[C@H]21)C3(C)C [docetaxel]
- median survival (12 patients with high BRCA1 levels (received docetaxel alone)): 11 months

Compound: C#Cc1cccc(Nc2ncnc3cc(OCCOC)c(OCCOC)cc23)c1 [erlotinib]
- median survival (11 patients with EGFR mutations (received erlotinib)): not reached

Compound: docetaxel/cisplatin
- median survival (34 patients with intermediate BRCA1 levels (received docetaxel/cisplatin)): 9 months

Compound: gemcitabine/cisplatin
- median survival (32 patients with low BRCA1 levels (received gemcitabine/cisplatin)): not reached
